Reference: the NIST ThermoML archive (doi:10.1021/je8004134)
Values joined by “and” are separate entries in the source; they are usually repeats but may differ in a detail not shown here. Equal values may be shown once. ± gives the expanded uncertainty stated by the source.

Tests used:
[1] = an = ratio of the nth substance listed, in mol/kg; conditions: 298.15 K, 101 kPa, Liquid; for speed of sound: Sing-around technique in a fixed-path interferometer; for mass density: Vibrating tube method
[2] = 298.15 K, 101 kPa, Liquid

[Mn+2].[O-][Cl+3]([O-])([O-])[O-].[O-][Cl+3]([O-])([O-])[O-] [manganese (II) perchlorate] + CC(=O)N(C)C
[1]
Conditions	mass density [kg/m3]	speed of sound [m/s]
a1 = 0.03006	942.406 ± 0.31	1459.5 ± 1.2
a1 = 0.05909	948.611 ± 0.31	1463.1 ± 1.2
a1 = 0.08863	954.924 ± 0.31	1466.8 ± 1.2
a1 = 0.1177	961.136 ± 0.31	1470.4 ± 1.2
a1 = 0.1466	967.302 ± 0.3	1474.1 ± 1.2
a1 = 0.1747	973.327 ± 0.3	1477.6 ± 1.2
a1 = 0.2018	979.1 ± 0.3	1481.2 ± 1.2
a1 = 0.2287	984.866 ± 0.3	1485 ± 1.2

CC(=O)N(C)C [N,N-dimethylethanamide] + [Cl][Ni][Cl]
[1], a2 = 0
Conditions	mass density [kg/m3]	speed of sound [m/s]
–	936.23 ± 0.25	1455.4 ± 1.2

C[S+](C)[O-] [dimethyl sulfoxide]
[2]
Conditions	mass density	speed of sound [m/s]
Sing-around technique in a fixed-path interferometer	–	1484.1 ± 1.2
Vibrating tube method	1095.19 ± 0.37 kg/m3 and 1095.2 ± 0.38 kg/m3 and 1095.19 ± 0.33 kg/m3	–

[Cl][Co][Cl] [cobalt chloride] + CC(=O)N(C)C
[1]
Conditions	mass density [kg/m3]	speed of sound [m/s]
a1 = 0.02558	938.7 ± 0.25	1456.5 ± 1.2
a1 = 0.05173	941.28 ± 0.25	1457.3 ± 1.2
a1 = 0.07676	943.75 ± 0.25	1458 ± 1.2
a1 = 0.1024	946.279 ± 0.24	1458.9 ± 1.2
a1 = 0.1289	948.892 ± 0.24	1459.8 ± 1.2
a1 = 0.1539	951.355 ± 0.24	1460.7 ± 1.2
a1 = 0.181	954.035 ± 0.24	1461.6 ± 1.2
a1 = 0.2056	956.46 ± 0.24	1462.6 ± 1.2

C[S+](C)[O-] [dimethyl sulfoxide] + [Cu+2].[O-][Cl+3]([O-])([O-])[O-].[O-][Cl+3]([O-])([O-])[O-]
[1], a2 = 0
Conditions	mass density [kg/m3]	speed of sound [m/s]
–	1095.2 ± 0.38	1484.1 ± 1.2

C[S+](C)[O-] [dimethyl sulfoxide] + [Cl][Ni][Cl]
[1], a2 = 0
Conditions	mass density [kg/m3]	speed of sound [m/s]
–	1095.19 ± 0.34	1484.1 ± 1.2

[Cl][Ni][Cl] [nickel chloride (NiCl2)] + CC(=O)N(C)C
[1]
Conditions	mass density [kg/m3]	speed of sound [m/s]
a1 = 0.019	938.196 ± 0.25	1457 ± 1.2
a1 = 0.03382	939.871 ± 0.25	1458 ± 1.2
a1 = 0.05743	942.54 ± 0.25	1459.5 ± 1.2
a1 = 0.07634	944.678 ± 0.25	1460.8 ± 1.2
a1 = 0.09563	946.859 ± 0.25	1462 ± 1.2
a1 = 0.114	948.937 ± 0.25	1463.3 ± 1.2
a1 = 0.1327	951.046 ± 0.25	1464.5 ± 1.2
a1 = 0.1513	953.148 ± 0.25	1465.8 ± 1.2

[Cl][Mn][Cl] [manganese chloride] + C[S+](C)[O-]
[1]
Conditions	mass density [kg/m3]	speed of sound [m/s]
a1 = 0.04414	1100.11 ± 0.33	1486.7 ± 1.2
a1 = 0.0572	1101.48 ± 0.33	1487.5 ± 1.2
a1 = 0.06981	1102.79 ± 0.33	1488.2 ± 1.2
a1 = 0.08942	1104.86 ± 0.33	1489.2 ± 1.2
a1 = 0.1135	1107.39 ± 0.33	1490.3 ± 1.2
a1 = 0.1386	1110.03 ± 0.33	1491.4 ± 1.2
a1 = 0.1616	1112.45 ± 0.33	1492.1 ± 1.2
a1 = 0.19	1115.49 ± 0.33	1493.2 ± 1.2
a1 = 0.213	1117.93 ± 0.33	1494.1 ± 1.2

CC(=O)N(C)C [N,N-dimethylethanamide] + [Cu+2].[O-][Cl+3]([O-])([O-])[O-].[O-][Cl+3]([O-])([O-])[O-]
[1], a2 = 0
Conditions	mass density [kg/m3]	speed of sound [m/s]
–	936.11 ± 0.32	1455.4 ± 1.2
